In experiment [1] the test system is A549. Briefly: Cytotoxicity against human A549 cells assessed as inhibition of cell growth incubated for 48 hrs by CCK-8 assay. Format: functional, cell-based. As to conditions: A549, 48 h.
Experiment [2] relates to T-24. Briefly: Cytotoxicity against human T24 cells assessed as inhibition of cell growth incubated for 48 hrs by CCK-8 assay. Format: functional, cell-based. To be noted: T-24, 48 h. In general terms: Tetrazolium dyes change colour on reduction, which living cells bring about.
In the next experiment the test system is MCF7. Description: Cytotoxicity against human MCF7 cells assessed as inhibition of cell growth incubated for 48 hrs by CCK-8 assay. Format: functional, cell-based. As to conditions: MCF7, 48 h.
Another experiment has as its system HepG2. Briefly: Cytotoxicity against human HepG2 cells assessed as inhibition of cell growth incubated for 48 hrs by CCK-8 assay. As to conditions: HepG2, 48 h. Format: functional, cell-based.
For experiment [3], the system named is MKN-45. Briefly: Cytotoxicity against human MNK45 cells assessed as inhibition of cell growth incubated for 48 hrs by CCK-8 assay. Type of experiment: functional, cell-based. As to conditions: MKN-45, 48 h.
For another experiment, the system named is K562. Briefly: Cytotoxicity against human K562 cells assessed as inhibition of cell growth incubated for 48 hrs by CCK-8 assay. Format: functional, cell-based. To be noted: K562, 48 h.
Experiment [4] deals with MKN-45. Briefly: Potency index, ratio of diosgenin IC50 to test compound IC50 for cytotoxicity against human MNK45 cells assessed as inhibition of cell growth incubated for 48 hrs by CCK-8 assay. Format: functional.
The subject of experiment [5] is T-24. Description: Potency index, ratio of diosgenin IC50 to test compound IC50 for cytotoxicity against human T24 cells assessed as inhibition of cell growth incubated for 48 hrs by CCK-8 assay. Format: functional.
The test system of experiment [6] is A549. Description: Potency index, ratio of diosgenin IC50 to test compound IC50 for cytotoxicity against human A549 cells assessed as inhibition of cell growth incubated for 48 hrs by CCK-8 assay. Format: functional.

Consider `C[C@@H]1CC[C@@]2(OC1)O[C@H]1C[C@H]3[C@@H]4CC=C5C[C@@H](OC(=O)CN)CC[C@]5(C)[C@H]4CC[C@]3(C)[C@H]1[C@@H]2C` [GLYCINE DIOSGENYL ESTER], for which the concentration for half-maximal inhibition (IC50) in the experiment with A549 [1] was determined as 18 µM; with T-24 [2], 9.98 µM; in the experiment with MCF7 it was 10.3 µM; in the experiment on HepG2 it was 14.9 µM; in the experiment on MKN-45 [3], 16.2 µM; with K562, 7.68 µM.
For the compound `C[C@@H]1CC[C@@]2(OC1)O[C@H]1C[C@H]3[C@@H]4CC=C5C[C@@H](OC(=O)[C@@H]6CCCN6)CC[C@]5(C)[C@H]4CC[C@]3(C)[C@H]1[C@@H]2C`, the IC50 in the experiment on A549 [1] was found to be 20.6 µM; with T-24 [2], 9.65 µM; with MCF7 it was 11.4 µM; in the experiment on HepG2 it was 16.4 µM; with MKN-45 [3], 5.47 µM; in the experiment on K562, 7.47 µM.
On to `C[C@@H]1CC[C@@]2(OC1)O[C@H]1C[C@H]3[C@@H]4CC=C5C[C@@H](OC(=O)[C@@H](N)Cc6c[nH]c7ccccc67)CC[C@]5(C)[C@H]4CC[C@]3(C)[C@H]1[C@@H]2C`, for which the IC50 in the experiment on A549 [1] came out at 12.9 µM; with T-24 [2], 7.06 µM; in the experiment with MCF7, 9.6 µM; in the experiment on HepG2, 17 µM; in the experiment with MKN-45 [3], 5.21 µM; with K562, 8.47 µM. Besides, the “Ratio IC50” value in the experiment with MKN-45 [4] is 15; in the experiment with T-24 [5] it was 4.1.
On to `CC(=O)O[C@H]1CC[C@@]2(C)C(=CC[C@H]3[C@@H]4C[C@@H]5O[C@H](CC[C@@H](C)COC(=O)[C@@H](N)C(C)C)[C@@H](C)[C@@H]5[C@@]4(C)CC[C@@H]32)C1`, for which the IC50 was determined as 4.92 µM with A549 [1]; 4.94 µM in the experiment on T-24 [2]; 17.8 µM with MCF7; 12.3 µM in the experiment on HepG2; 7.01 µM in the experiment with MKN-45 [3]; 6.77 µM with K562. In the experiment on A549 [6], the “Ratio IC50” value is 6.7.
As for `CC(C)C[C@H](N)C(=O)O[C@H]1CC[C@@]2(C)C(=CC[C@H]3[C@@H]4C[C@@H]5O[C@]6(CC[C@@H](C)CO6)[C@@H](C)[C@@H]5[C@@]4(C)CC[C@@H]32)C1`, the IC50 in the experiment with A549 [1] is more than 30 µM; in the experiment with T-24 [2], 8.83 µM; in the experiment on MCF7 it was more than 30 µM; in the experiment with HepG2, more than 30 µM; in the experiment with MKN-45 [3], 10.4 µM; with K562 it was 10.5 µM.
Consider `CC(C)[C@H](N)C(=O)O[C@H]1CC[C@@]2(C)C(=CC[C@H]3[C@@H]4C[C@@H]5O[C@]6(CC[C@@H](C)CO6)[C@@H](C)[C@@H]5[C@@]4(C)CC[C@@H]32)C1`, for which the IC50 was 23 µM with A549 [1]; 11.8 µM in the experiment on T-24 [2]; more than 30 µM with MCF7; 27.7 µM in the experiment on HepG2; 13.4 µM in the experiment with MKN-45 [3]; 16.5 µM with K562.
On to `C[C@@H]1CC[C@@]2(OC1)O[C@H]1C[C@H]3[C@@H]4CC=C5C[C@@H](OC(=O)[C@@H](N)Cc6ccccc6)CC[C@]5(C)[C@H]4CC[C@]3(C)[C@H]1[C@@H]2C`, for which the IC50 with A549 [1] was more than 30 µM; in the experiment on T-24 [2], 10.6 µM; with MCF7, 25.4 µM; in the experiment with HepG2 it was 26.1 µM; with MKN-45 [3], 11.4 µM; in the experiment with K562, 8.59 µM.
Take `C[C@@H]1CC[C@@]2(OC1)O[C@H]1C[C@H]3[C@@H]4CC=C5C[C@@H](OC(=O)[C@H](C)N)CC[C@]5(C)[C@H]4CC[C@]3(C)[C@H]1[C@@H]2C`: the IC50 with A549 [1] was 18.1 µM; in the experiment with T-24 [2], 9.1 µM; in the experiment with MCF7, more than 30 µM; with HepG2 it was more than 30 µM; with MKN-45 [3], 11.5 µM; in the experiment on K562, 15.5 µM.
Consider `CC(=O)O[C@H]1CC[C@@]2(C)C(=CC[C@H]3[C@@H]4C[C@@H]5O[C@H](CC[C@@H](C)COC(=O)[C@H](C)N)[C@@H](C)[C@@H]5[C@@]4(C)CC[C@@H]32)C1`, for which the IC50 in the experiment on A549 [1] is 27.6 µM; with T-24 [2], 11.4 µM; with MCF7, more than 30 µM; in the experiment on HepG2 it was more than 30 µM; in the experiment on MKN-45 [3] it was 10.7 µM; with K562 it was 17.5 µM.
Take `C[C@@H]1CC[C@@]2(OC1)O[C@H]1C[C@H]3[C@@H]4CC=C5C[C@@H](O)CC[C@]5(C)[C@H]4CC[C@]3(C)[C@H]1[C@@H]2C` [DISOGENIN]: the IC50 in the experiment with A549 [1] was found to be 32.9 µM; in the experiment with T-24 [2], 28.9 µM; in the experiment on MCF7 it was 28.5 µM; in the experiment with HepG2 it was 48.4 µM; with MKN-45 [3] it was 78.3 µM; in the experiment with K562 it was 30 µM.
Regarding `CC(=O)O[C@H]1CC[C@@]2(C)C(=CC[C@H]3[C@@H]4C[C@@H]5O[C@H](CC[C@@H](C)COC(=O)[C@@H](N)CC(C)C)[C@@H](C)[C@@H]5[C@@]4(C)CC[C@@H]32)C1`, the IC50 was more than 30 µM in the experiment on A549 [1]; 5.67 µM in the experiment on T-24 [2]; 21.2 µM with MCF7; 12.9 µM with HepG2; 12.1 µM in the experiment with MKN-45 [3]; 11.5 µM with K562.
Regarding `CC(=O)O[C@H]1CC[C@@]2(C)C(=CC[C@H]3[C@@H]4C[C@@H]5O[C@H](CC[C@@H](C)COC(=O)[C@@H](N)Cc6ccccc6)[C@@H](C)[C@@H]5[C@@]4(C)CC[C@@H]32)C1`, the IC50 is 27.2 µM in the experiment on A549 [1]; 8.22 µM in the experiment on T-24 [2]; more than 30 µM in the experiment with MCF7; 18.8 µM with HepG2; more than 30 µM in the experiment on MKN-45 [3]; 15.8 µM in the experiment on K562.
As for `CC(=O)O[C@H]1CC[C@@]2(C)C(=CC[C@H]3[C@@H]4C[C@@H]5O[C@H](CC[C@@H](C)COC(=O)[C@@H]6CCCN6)[C@@H](C)[C@@H]5[C@@]4(C)CC[C@@H]32)C1`, the IC50 in the experiment with A549 [1] was 22.3 µM; in the experiment on T-24 [2], 12.2 µM; in the experiment on MCF7, more than 30 µM; with HepG2, 18.5 µM; in the experiment on MKN-45 [3], 17.3 µM; with K562, 27.7 µM.
`CC(=O)O[C@H]1CC[C@@]2(C)C(=CC[C@H]3[C@@H]4C[C@@H]5O[C@H](CC[C@@H](C)COC(=O)CN)[C@@H](C)[C@@H]5[C@@]4(C)CC[C@@H]32)C1`: the IC50 was more than 30 µM in the experiment with A549 [1]; 10.4 µM with T-24 [2]; more than 30 µM in the experiment on MCF7; more than 30 µM in the experiment on HepG2; 17.3 µM with MKN-45 [3]; 15.2 µM in the experiment with K562.
As for `O=c1[nH]cc(F)c(=O)[nH]1` [FLUOROURACIL], the IC50 came to 12.9 µM with T-24 [2]; 18.6 µM in the experiment on MCF7; 18.9 µM in the experiment on HepG2; 21.4 µM in the experiment on MKN-45 [3]; 20.2 µM in the experiment on K562.

A word on the IC50: it is the concentration needed to halve the response being measured.

The record behind these values is ChEMBL document CHEMBL4813993, “Design and synthesis of diosgenin derivatives as apoptosis inducers through mitochondria-related pathways” (Eur J Med Chem, 2021).
